From BindingDB's records for doi:10.1021/jm00037a008 (Institute, 1994)

Legend:
[1] = Evaluation for the inhibition of kappa opioid binding to bovine striatal membranes by the affinity ligand 1 nM [3H]U-69593
[2] = Evaluation for the inhibition of delta opioid binding to bovine striatal membranes by the affinity ligand 0.2 nM [3H]p-Cl-DPDPE

CN1CC[C@]23c4c5ccc(O)c4O[C@H]2C(=O)CC[C@@]3(NC(=O)CS)C1C5 [1N-[10-hydroxy-4-methyl-14-oxo-12-oxa-4-azapentacyclo[9.6.1.01,13.05,17.07,18]octadeca-7,9,11(18)-trien-17-yl]-2-sulfanylacetamide]
IC50 [1]: 41 nM
IC50 [2]: 12 nM
